Source: patent publication US20260125375A1 (Pfizer Inc., priority 2022, published 2026)

Experiments:
[1] = molecular target: T1, CBL-B (residues 36-427) (Homo sapiens, UniProt Q13191); experiment: Ligand Displacement Assay (LDA), HTRF competitive binding against BODIPY-labeled fluorescent tracer, CBL-B; details: geometric mean of the number of tests, read-out: CBL-B Ki (nM) GMean
T1 construct: Purified CBL-B (residues 36-427) and C-CBL (residues 46-435) proteins from baculovirus-infected insect cells; made in house; host or cells: baculovirus-infected insect cells
Method in brief: (§1)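 Terbium-streptavidin donor on BirA-biotinylated, AviTagged protein from baculovirus-infected insect cells; BODIPY tracer as acceptor. Compound titrations were three-fold and duplicated, […] with 2% DMSO final.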

[2] = molecular target: T2, C-CBL (residues 46-435) (Homo sapiens, UniProt P22681); experiment: Ligand Displacement Assay (LDA), HTRF competitive binding against BODIPY-labeled fluorescent tracer, C-CBL; details: geometric mean of the number of tests, read-out: C-CBL Ki (nM) GMean
T2 construct: Purified CBL-B (residues 36-427) and C-CBL (residues 46-435) proteins from baculovirus-infected insect cells; made in house; host or cells: baculovirus-infected insect cells
T2 sequence (P22681 46-435): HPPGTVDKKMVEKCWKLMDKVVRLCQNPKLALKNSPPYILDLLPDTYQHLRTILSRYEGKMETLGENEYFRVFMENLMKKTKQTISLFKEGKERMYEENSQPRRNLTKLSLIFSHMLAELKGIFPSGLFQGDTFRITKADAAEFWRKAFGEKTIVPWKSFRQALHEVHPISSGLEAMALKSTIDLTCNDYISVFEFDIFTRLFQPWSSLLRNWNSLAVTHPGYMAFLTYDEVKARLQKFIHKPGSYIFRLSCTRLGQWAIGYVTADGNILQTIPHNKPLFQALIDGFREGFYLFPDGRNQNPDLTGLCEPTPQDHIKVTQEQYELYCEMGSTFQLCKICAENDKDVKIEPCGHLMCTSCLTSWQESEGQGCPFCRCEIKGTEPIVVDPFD
Method in brief: as §1

[3] = molecular target: T3, WT CBL-B (36-427) (Homo sapiens, UniProt Q13191); experiment: Surface Plasmon Resonance (SPR) assay, binding affinity and kinetics, CBL-B; details: SPR at 10° C., biotinylated WT CBL-B (36-427) on streptavidin chip; geometric mean; read-out: CBL-B SPR Kd (nM) GMean
T3 construct: N-terminal biotinylated WT CBL-B (36-427) and C-CBL (46-435) were captured on a streptavidin (SA) coated sensor chip
Method in brief: (§2)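 SPR kinetics at 10° C, run either single-cycle (0.001–1 μM, 3-fold, 6 points, 120 s on, >5400 s off) or multi-cycle (10 points, 2-fold, top 10 or 100 μM, 90 s on). Proteins were N-biotinylated CBL-B (36-427) and C-CBL (46-435) on SA surfaces, in pH 7.2 HEPES, 2% DMSO.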

[4] = molecular target: T4, C-CBL (46-435) (Homo sapiens, UniProt P22681); experiment: Surface Plasmon Resonance (SPR) assay, binding affinity and kinetics, C-CBL; details: SPR at 10° C., biotinylated C-CBL (46-435) on streptavidin chip; geometric mean; read-out: C-CBL SPR Kd (nM) GMean
T4 construct: N-terminal biotinylated WT CBL-B (36-427) and C-CBL (46-435) were captured on a streptavidin (SA) coated sensor chip
T4 sequence (P22681 46-435): T2 sequence (P22681 46-435)
Method in brief: as §2

`Cn1cnnc1[C@@H](c1cccc(-c2n[nH]c3c(CN4CC[C@H](O)C4)nc(C(F)(F)F)cc23)c1)C1CCC1` [Example C77, (3S)-1-{[3-{3-[(R)-cyclobutyl(4-methyl-4H-1,2,4-triazol-3-yl)methyl]phenyl}-5-(trifluoromethyl)-1H-pyrazolo[3,4-c]pyridin-7-yl]methyl}pyrrolidin-3-ol] was tested, and the Ki [1] was 2.4 nM, the Ki [2] was 29.5 nM and the Kd [3] was 2.5 nM. It also gave a Kd [4] of 54.9 nM.

For `Cc1cc2c(-c3cccc([C@H](c4nncn4C)C4CCC4)c3)n[nH]c2cn1` [Example A6, 3-{3-[(R)-cyclobutyl(4-methyl-4H-1,2,4-triazol-3-yl)methyl]phenyl}-5-methyl-1H-pyrazolo[3,4-c]pyridine], the Ki [1] was 51.5 nM, the Ki [2] was 525 nM and the Kd [3] was 21.4 nM. For the same compound, the Kd [4] was 882 nM.

In the case of `C[C@@H](c1nc(C(F)(F)F)cc2c(-c3cccc(C4(Cc5nncn5C)COC4)c3)n[nH]c12)N1CC[C@H](F)C1` (single isomer, unassigned) [Example D97], the Ki [1] is reported as 25 nM, the Ki [2] is reported as 139 nM and the Kd [3] is reported as 31.9 nM. It also gave a Kd [4] of 230 nM.

`Cn1cnnc1CC1(c2cccc(-c3n[nH]c4c(CN[C@@H]5CCC(F)(F)C5)nc(C(F)(F)F)cc34)c2)COC1` [Example C60, (1R)-3,3-difluoro-N-{[3-(3-{3-[(4-methyl-4H-1,2,4-triazol-3-yl)methyl]oxetan-3-yl}phenyl)-5-(trifluoromethyl)-1H-pyrazolo[3,4-c]pyridin-7-yl]methyl}cyclopentan-1-amine] was tested, and the Ki [1] was 10.7 nM, the Ki [2] was 57.5 nM and the Kd [3] was 5.1 nM. For the same compound, the Kd [4] was 41.7 nM.

In the case of `Cn1cnnc1[C@@H](c1cccc(-c2n[nH]c3c(CN[C@@H]4CCOC4)nc(C(F)(F)F)cc23)c1)C1CCC1` [Example C104, (3R)-N-{[3-{3-[(R)-cyclobutyl(4-methyl-4H-1,2,4-triazol-3-yl)methyl]phenyl}-5-(trifluoromethyl)-1H-pyrazolo[3,4-c]pyridin-7-yl]methyl}oxolan-3-amine], the Ki [1] is reported as 28 nM, the Ki [2] is reported as 218 nM and the Kd [3] is reported as 8.2 nM. For the same compound, the Kd [4] was 328 nM.

Work on `Cn1cnnc1[C@@H](c1cccc(-c2n[nH]c3c(CNC4CCNC(=O)C4)nc(C(F)(F)F)cc23)c1)C1CCC1` (single isomer, unassigned) [Example C88] yielded a Ki [1] of 7.2 nM, a Ki [2] of 132 nM and a Kd [3] of 4.8 nM. The Kd [4] was 59.7 nM.

With `Cn1cnnc1CC1(c2cccc(-c3n[nH]c4c(OCCN)nc(C(F)(F)F)cc34)c2)COC1` [Example J3, 2-{[3-(3-{3-[(4-methyl-4H-1,2,4-triazol-3-yl)methyl]oxetan-3-yl}phenyl)-5-(trifluoromethyl)-1H-pyrazolo[3,4-c]pyridin-7-yl]oxy}ethan-1-amine] the Ki [1] was 16.7 nM, the Ki [2] was 76.3 nM and the Kd [3] was 3.2 nM. The Kd [4] was 53.6 nM.

`CC(N[C@@H]1CCOC1)c1nc(C(F)(F)F)cc2c(-c3cccc(C4(Cc5nncn5C)COC4)c3)n[nH]c12` (single isomer, unassigned) [Example C86] gave a Ki [1] of 9 nM, a Ki [2] of 49.4 nM and a Kd [3] of 5.1 nM. It also gave a Kd [4] of 60.3 nM.

Compound `CC(CN)c1nc(C(F)(F)F)cc2c(-c3cccc(C4(Cc5nncn5C)COC4)c3)n[nH]c12` (single isomer, unassigned) [Example K6, (2ξ)-2-[3-(3-{3-[(4-methyl-4H-1,2,4-triazol-3-yl)methyl]oxetan-3-yl}phenyl)-5-(trifluoromethyl)-1H-pyrazolo[3,4-c]pyridin-7-yl]propan-1-amine] has a Ki [1] of 26.5 nM, a Ki [2] of 78.6 nM and a Kd [3] of 11.3 nM. For the same compound, the Kd [4] was 125 nM.

`C[C@H](c1nc(C(F)(F)F)cc2c(-c3cccc(C4(Cc5nncn5C)COC4)c3)n[nH]c12)N1CC(F)C1` (single isomer, unassigned) [Example D44] was tested, and the Ki [1] was 15.6 nM, the Ki [2] was 47.4 nM and the Kd [3] was 5.9 nM. It also gave a Kd [4] of 74 nM.

Compound `CC(N[C@H]1CCOC1)c1nc(C(F)(F)F)cc2c(-c3cccc(C4(Cc5nncn5C)COC4)c3)n[nH]c12` (single isomer, unassigned) [Example C82] has a Ki [1] of 5.2 nM, a Ki [2] of 23.3 nM and a Kd [3] of 2.3 nM. For the same compound, the Kd [4] was 17 nM.
